{"source": "patent US9561201B2", "about": "“Therapeutic compounds” (Fibrotech Therapeutics Pty Ltd, priority 2006, dated 2017)", "key": {"[1]": {"tested_on": "mesangial cell line (1097)", "assay": "TGF-β induced 3H-proline incorporation in cultured rat mesangial cells (Example 2)", "format": "cell-based, Sprague-Dawley rats", "details": "renal mesangial cells, from 30 to 100 μM", "method": "The anti-fibrotic effects of 3-methoxy-4-propargyloxybenzaldehyde (FT011) in a renal cell line were tested by measuring proline incorporation after transforming growth factor-β stimulation.\nA well-characterized cloned mesangial cell line (1097) isolated from Sprague-Dawley rats was used between passages 30 and 40. Cells were cultured in Dulbecco's Modified Eagle's (DME) medium (Invitrogen, Grand Island, N.Y.) with heat-inactivated fetal bovine serum (FBS), 100 u/mL penicillin and 100 ug/mL streptomycin in a humidified 5% CO2 atmosphere at 37° C.\nTo compare the effects of tranilast and FT011 on collagen production in vitro, incorporation of tritiated proline was used. Mesangial cells were plated at low density into 24-well culture plates in DME/5% FBS and allowed to adhere overnight. The subconfluent cells were starved overnight in DME/0.5% FBS and […] L-ascorbic acid (Sigma-Aldrich). Tranilast or FT011 was then added to the wells, followed 4 hours later by L-[2,3,4,5-^3H]-proline, 0.5 μCi/well (Amersham) and TGF-β1, 5 ng/ml (R & D systems). Mesangial cells were harvested 48 hours post-stimulation, washed three times with ice cold PBS, and incubated with 10% trichloroacetic acid (TCA) for 30 minutes on ice, followed by a wash in ice cold 10% TCA. Cells were then solubilised in […] 1M NaOH. […]"}, "[2]": {"assay": "Pilot study (toxicity assessment), 2 weeks oral gavage", "format": "in vivo, Sprague-Dawley (SD) rats", "details": "2 weeks", "method": "A total of twenty male Sprague-Dawley (SD) rats weighing 200-250 g were randomised to either FT011 (Fibrotech Therapeutics Pty Ltd, Melbourne, Australia) or Tranilast (Pharm Chemical, Shanghai Lansheng Corporation, China) at the dose of 50 mg, 100 mg, 200 mg and 400 mg/kg/day by gavage twice daily (n=2-3 per group). A control group of animals were gavaged with vehicle (1% carboxy methyl cellulose). The study was conducted for 2 weeks. Animals were bled daily at one, four, and eight hours after oral gavage to measure the plasma concentration. Serum was also collected to assess renal and liver function at the end of the study (plasma creatine and urate, ALT and bilirubin). Rats were individually housed in metabolic cages at the end of the study, habituated for 2 to 3 hours, and urine collected over 24 hours. Animals continued to have free access to tap water and standard laboratory chow during this period. The biochemistry tests performed at the department of pathology, St Vincent's hospital. Major organs including lung, heart, liver, spleen and kidney were harvested and immersed fix with 10% neutral buffered formalin and then embedded paraffin for subsequent light microscope examination."}, "[3]": {"tested_on": "cardiac fibroblasts", "details": "experimental model of diabetic cardiac disease [15]; cited from earlier work"}, "[4]": {"details": "patients with Gilbert's syndrome UGT1A1 variant [19]; cited from earlier work"}}, "data": [{"smiles": "COc1ccc(/C=C/C(=O)Nc2ccccc2C(=O)O)cc1OC", "note": "[Analogue 1, (E)-2-[[3-(3,4-Dimethoxyphenyl)-1-oxo-2-propenyl]amino]benzoic acid, reference compound]", "values": [{"measurement": "proline incorporation after TGF-β stimulation", "setting": "[1]", "value": "significantly reduce"}, {"measurement": "ALT", "setting": "[2]; 50 mg/kg/day gavage", "value": "40.5 ± 4.5"}, {"measurement": "Body weight", "setting": "[2]; 50 mg/kg/day gavage", "value": "315 ± 19", "unit": "Gram"}, {"measurement": "Plasma Creatinine", "setting": "[2]; 50 mg/kg/day gavage", "value": "43 ± 0.5", "unit": "µmol/L"}, {"measurement": "Plasma Urate", "setting": "[2]; 50 mg/kg/day gavage", "value": "<0.09", "unit": "mmol/L"}, {"measurement": "ALT", "setting": "[2]; 100 mg/kg/day gavage", "value": "41 ± 1"}, {"measurement": "Body weight", "setting": "[2]; 100 mg/kg/day gavage", "value": "298 ± 21", "unit": "Gram"}, {"measurement": "Plasma Creatinine", "setting": "[2]; 100 mg/kg/day gavage", "value": "43 ± 3.5", "unit": "µmol/L"}, {"measurement": "Plasma Urate", "setting": "[2]; 100 mg/kg/day gavage", "value": "<0.09", "unit": "mmol/L"}, {"measurement": "ALT", "setting": "[2]; 200 mg/kg/day gavage", "value": "41 ± 4.6"}, {"measurement": "Body weight", "setting": "[2]; 200 mg/kg/day gavage", "value": "293 ± 10", "unit": "Gram"}, {"measurement": "Plasma Creatinine", "setting": "[2]; 200 mg/kg/day gavage", "value": "45 ± 1", "unit": "µmol/L"}, {"measurement": "Plasma Urate", "setting": "[2]; 200 mg/kg/day gavage", "value": "<0.09", "unit": "mmol/L"}, {"measurement": "ALT", "setting": "[2]; 400 mg/kg/day gavage", "value": "40 ± 5"}, {"measurement": "Body weight", "setting": "[2]; 400 mg/kg/day gavage", "value": "314 ± 13", "unit": "Gram"}, {"measurement": "Plasma Creatinine", "setting": "[2]; 400 mg/kg/day gavage", "value": "49 ± 7.8", "unit": "µmol/L"}, {"measurement": "Plasma Urate", "setting": "[2]; 400 mg/kg/day gavage", "value": "<0.09", "unit": "mmol/L"}, {"measurement": "TGF-β-induced collagen synthesis in cardiac fibroblasts", "setting": "[3]", "value": "attenuate"}, {"measurement": "drug-induced adverse effect", "setting": "[4]", "value": "hyperbilirubinemia"}]}]}
